Measurements from patent US10856562B2, “Flavor composition and edible compositions containing same” (MARS, INCORPORATED, priority 2013, dated 2020).
“Also recorded” adds a separate entry of the source. Square brackets hold non-standard residues; d marks the D form. Ends that are not written are not given here. pGlu = O=C1CC[C@@H](C(=O)O)N1

Legend:
[1] = Salty taste of NaCl-reduced roasted chicken flavored rice with added peptide; assay type: in vivo; conditions: 50% NaCl reduction, 50 ppb peptide
Method: All Ingredients, except the rice, were placed into a container and mixed. The mixture was heated in a microwave for a total of one minute for two 30 second intervals. The rice and mixture were then mixed in a bowl. The cooking bowl was placed into a rice cooker and the cook cycle was started. After 36 minutes the rice was mixed and then allowed to cook for the remaining time for a total time of 49 minutes.
Three batches of rice were made: a control with 100% NaCl (4.7696 g), a sample with 50% NaCl (2.38 g), and the last sample had 50% NaCl (2.38 g) with 50 ppb of pGlu-Val-Leu.
Three batches of rice were made: a control with 100% NaCl, a sample with 50% NaCl, and a sample that had 50% NaCl (2.38 g) with 50 ppb of pGlu-Val-Val.
Two batches of rice were made: a control with 50% NaCl (2.38 g), and the other sample had 50% NaCl (2.38 g) with 50 ppb of pGlu-Val and 50 ppb of pGlu-Pro-Glu. Two stock solutions were made to be added to the rice: a 200 ppm stock solution of pGlu-Val in water and a 200 ppm stock solution of pGlu-Pro-Glu in water, as shown in table 44.
Three batches of rice were made: a control with 100% NaCl (4.7696 g), a sample with 40% NaCl (1.9 g), and the last sample had 40% NaCl (1.9 g) with 1 ppb of pGlu-Val-Leu and 1 ppb of pGlu-Val-Cys. […]

[2] = system: panel of trained tasters; assay: Saltiness of 25% sodium-reduced food products with peptides, panel of trained tasters; assay type: in vivo, human; conditions: for Saltiness compared to control / Saltiness/flavor compared to control: 10 ppb each, n=4; for Saltiness/flavor compared to control: control 350 mg
Method: Food product compositions were prepared by admixing flavor composition peptide(s) of the present application with food compositions, wherein the level of sodium (NaCl) in the food product compositions was reduced. The level of sodium was reduced by 25%, 50% or 75% compared to food products compositions that were not admixed with flavor composition peptides. The food product compositions comprising the flavor composition peptides were tasted by a panel of trained tasters and the level of saltiness was compared to the control food products.
The peptides pGlu-Val-Leu (identified as “SE-13”), pGlu-Val-Cys (identified as “UE-30”), pGlu-Val-Val (identified as “SE-17”) and pGlu-Cys-Cys (identified as “FE-37”) were tested in cottage cheese, tortilla chips, ketchup, cream of mushroom soup, alfredo sauce, sausage, mixed nuts, peanuts, soy sauce and chicken broth. The level of sodium in the test food products comprising the peptides was reduced by 25% compared to the control food products.

[3] = system: panelists; assay: Descriptive profile of umami enhancer UE-30 in solution, in-mouth (Example 5); assay type: in vivo, human; conditions: for Astringent, in-mouth perception / Bitter, in-mouth perception / Metallic, in-mouth perception / Mineral/Flinty, in-mouth perception / Numbing, in-mouth perception / Salt, in-mouth perception / Sour, in-mouth perception / Sweet, in-mouth perception / Umami FF, in-mouth perception / Umami/Brothy, in-mouth perception: mean score, 15-point scale
Method: Descriptive attributes (e.g., taste, flavor and chemical feeling factors) of four use levels of a pGlu-Val-Cys (UE-30) flavor composition peptide was determined. The four use levels were as follows: 1.0 ppb, 10.0 ppb, 100.0 ppb and 1000.0 ppb.
Data was collected for the attributes of the product in-mouth for the use levels according to the following protocol: • The samples were analyzed for flavor and aftertaste by six-nine members of a panel, trained and experienced in appearance, flavor and texture evaluation using the Spectrum™ method. Samples were evaluated across multiple panel sessions. • The strength of each attribute was rated on a 15-point scale, where 0=none and 15=very strong. • This scale incorporates the ability to use tenths of a point and therefore has the potential of 150 scale differentiations. • The scale may be expanded beyond 15 points to include extreme ratings if necessary. Attribute Perception Protocol • The panelists evaluated each sample using the following procedure • Descriptive Profiles (Flavor and Chemical Feeling Factors) of 4 levels of UE-30 (umami enhancer) • Individual data (1 replication) was collected for the flavor and chemical feeling factors of the product in-mouth Sample Preparation
The 01, 10, 100 and 1000 ppb test samples of the flavor composition peptide was prepared in water as described in the table 19.
The panelists evaluated each sample for the attributes described in table 20.

[4] = Salty taste of peanut butter with added peptide; assay type: in vivo; conditions: no salt reduction, 267 ppb peptide
Method: All Ingredients were added into the mixing bowl and milled on the Retsch mill (model RM200) for a total of 30 minutes for two 15 minute intervals. After 15 minutes, the walls of the bowl were scraped with a spatula and then, milling was resumed.
Three batches of peanut butter were made: a control with 100% NaCl (0.05 g), a sample with 100% NaCl (0.05 g) and 267 ppb pGlu-Val-Leu, and a sample with 50% NaCl reduction (0.025 g) and with 267 ppb pGlu-Val-Leu.
A 1000 ppm stock of pGlu-Val-Leu in salt was made to be added to the peanut butter.

[5] = Salty taste of NaCl-reduced potato chips with added peptide; assay type: in vivo; conditions: 50% salt reduction, 1150 ppb peptide
Method: All Ingredients were added into a plastic container and mixed gently.
Two batches of potato chips were made: a control with 100% NaCl (0.5 g) and a sample with 50% NaCl (0.25 g) and 1150 ppb pGlu-Val-Leu.
A 1000 ppm stock of pGlu-Val-Leu in salt was made to be added to the potato chips.

[6] = Chicken Broth, control 860 mg, test 645 mg Na

[pGlu]-Val-Val [SE-17]
Aftertaste [1]: had a salty aftertaste
Saltiness compared to control [2, 6]: Test samples saltier than
Saltiness/flavor compared to control ([2]; Cottage Cheese, test 262 mg Na): Test samples notably less
Preference among test samples ([2]; Cottage Cheese, test 262 mg Na, compared to SE-13 and SE-13 + UE-30): combination preferred

[pGlu]-Val-Cys [UE-30]
Astringent, in-mouth perception ([3]; 1.0 ppb in solution): 0.0
Bitter, in-mouth perception ([3]; 1.0 ppb in solution): 0.0
Metallic, in-mouth perception ([3]; 1.0 ppb in solution): 0.0
Mineral/Flinty, in-mouth perception ([3]; 1.0 ppb in solution): 0.5
Numbing, in-mouth perception ([3]; 1.0 ppb in solution): 0.0
Salt, in-mouth perception ([3]; 1.0 ppb in solution): 1.9
Sour, in-mouth perception ([3]; 1.0 ppb in solution): 0.0
Sweet, in-mouth perception ([3]; 1.0 ppb in solution): 0.0
Umami FF, in-mouth perception ([3]; 1.0 ppb in solution): 0.5
Umami/Brothy, in-mouth perception ([3]; 1.0 ppb in solution): 0.7
Level of the remaining aromatics, basic tastes and chemical feeling factors with increasing concentration ([3]; 1.0 to 1000.0 ppb, in-mouth): does not increase
Salt perception level as the concentration increases ([3]; 1.0 to 1000.0 ppb, in-mouth): increases slightly; also recorded: Shows increases
Umami feeling factor as the concentration increases ([3]; 1.0 to 1000.0 ppb, in-mouth): increases slightly; also recorded: Shows increases
Umami/brothy aromatic as the concentration increases ([3]; 1.0 to 1000.0 ppb, in-mouth): increases slightly; also recorded: Shows increases
Astringent, in-mouth perception ([3]; 10.0 ppb in solution): 0.0
Bitter, in-mouth perception ([3]; 10.0 ppb in solution): 0.0
Metallic, in-mouth perception ([3]; 10.0 ppb in solution): 0.0
Mineral/Flinty, in-mouth perception ([3]; 10.0 ppb in solution): 0.7
Numbing, in-mouth perception ([3]; 10.0 ppb in solution): 0.0
Salt, in-mouth perception ([3]; 10.0 ppb in solution): 2.1
Sour, in-mouth perception ([3]; 10.0 ppb in solution): 0.0
Sweet, in-mouth perception ([3]; 10.0 ppb in solution): 0.0
Umami FF, in-mouth perception ([3]; 10.0 ppb in solution): 1.9
Umami/Brothy, in-mouth perception ([3]; 10.0 ppb in solution): 1.0
Astringent, in-mouth perception ([3]; 100.0 ppb in solution): 0.0
Bitter, in-mouth perception ([3]; 100.0 ppb in solution): 0.0
Metallic, in-mouth perception ([3]; 100.0 ppb in solution): 0.0
Mineral/Flinty, in-mouth perception ([3]; 100.0 ppb in solution): 0.7
Numbing, in-mouth perception ([3]; 100.0 ppb in solution): 0.0
Salt, in-mouth perception ([3]; 100.0 ppb in solution): 2.6
Sour, in-mouth perception ([3]; 100.0 ppb in solution): 0.0
Sweet, in-mouth perception ([3]; 100.0 ppb in solution): 0.0
Umami FF, in-mouth perception ([3]; 100.0 ppb in solution): 2.7
Umami/Brothy, in-mouth perception ([3]; 100.0 ppb in solution): 1.8
Astringent, in-mouth perception ([3]; 1000.0 ppb in solution): 0.0
Bitter, in-mouth perception ([3]; 1000.0 ppb in solution): 0.0
Metallic, in-mouth perception ([3]; 1000.0 ppb in solution): 0.0
Mineral/Flinty, in-mouth perception ([3]; 1000.0 ppb in solution): 0.6
Numbing, in-mouth perception ([3]; 1000.0 ppb in solution): 0.0
Salt, in-mouth perception ([3]; 1000.0 ppb in solution): 3.4
Sour, in-mouth perception ([3]; 1000.0 ppb in solution): 0.0
Sweet, in-mouth perception ([3]; 1000.0 ppb in solution): 0.0
Umami FF, in-mouth perception ([3]; 1000.0 ppb in solution): 3.5
Umami/Brothy, in-mouth perception ([3]; 1000.0 ppb in solution): 2.5

[pGlu]-Val-Leu [SE-13]
Salty taste compared to control with 100% NaCl [4]: saltier than the control
Salty taste compared to control with 100% NaCl [5]: saltier than the control
Saltiness compared to control [2, 6]: Test samples saltier than
Saltiness/flavor compared to control ([2]; Cottage Cheese, test 262 mg Na): Test samples notably less
Saltiness compared to SE-17 ([2]; Ketchup, test 120 mg Na): SE-13 more salty than
Saltiness compared to control ([2]; Tortilla Chips, control 103 mg, test 77 mg Na): Test samples saltier than
